In patent US20240158446A1, “CYCLIC COMPOUND HAVING SELECTIVE INHIBITORY ACTION ON KRAS OVER HRAS AND NRAS” (CHUGAI SEIYAKU KABUSHIKI KAISHA, priority 2021, published 2024):
*1 amine or outer side, *2 acyl side, *3 side chain or, on linkers, in order; H or OH if unused. Where a SMILES comes first, the peptide text is derived from it. Bridges are numbered along the chain shown (N, C = ends). [ ]: non-standard residue; d: D form. The star is where a group is joined. X47 = CC(C)(C)CCN([C@@H](Cc1ccc(C(F)(F)F)cc1)C(=O)[*:2])[*:1]; hPhe(3-Cl-4-CF3) = N[C@@H](CCc1ccc(C(F)(F)F)c(Cl)c1)C(=O)O; NMeGly(cPent) = CN[C@H](C(=O)O)C1CCCC1; NMeD = CN[C@@H](CC(=O)O)C(=O)O; NMeL = CN[C@@H](CC(C)C)C(=O)O; Morpholide = C1CN(*)CCO1; Ac5c = NC1(C(=O)O)CCCC1; Sar = CNCC(=O)O

How the values were obtained:
[1] = target: GDP-bound NRAS wild-type protein (Homo sapiens, UniProt P01111); assay: Binding to NRAS by surface plasmon resonance (SPR), Single Cycle Kinetics; settings: for NRAS/KRAS (ratio of KD value with respect to GDP-bound NRAS wild-type protein to KD value with respect to KRAS): SPR KD ratio NRAS/KRAS, class symbols
[2] = target: GDP-bound HRAS wild-type protein (Homo sapiens, UniProt P01112); assay: Binding to HRAS by surface plasmon resonance (SPR), Single Cycle Kinetics; settings: for HRAS/KRAS (ratio of KD value with respect to GDP-bound HRAS wild-type protein to KD value with respect to KRAS): SPR KD ratio HRAS/KRAS, class symbols
[3] = SPR, GDP-bound NRAS wild-type protein vs GDP-bound KRAS wild-type protein
[4] = SPR, GDP-bound HRAS wild-type protein vs GDP-bound KRAS wild-type protein

Chain of GDP-bound NRAS wild-type protein (P01111 whole entry): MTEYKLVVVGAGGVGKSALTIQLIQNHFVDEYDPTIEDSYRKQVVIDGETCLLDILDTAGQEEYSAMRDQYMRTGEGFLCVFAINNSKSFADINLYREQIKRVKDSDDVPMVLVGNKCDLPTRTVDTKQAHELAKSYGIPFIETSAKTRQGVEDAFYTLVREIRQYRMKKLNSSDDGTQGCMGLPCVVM
Chain of GDP-bound HRAS wild-type protein (P01112 whole entry): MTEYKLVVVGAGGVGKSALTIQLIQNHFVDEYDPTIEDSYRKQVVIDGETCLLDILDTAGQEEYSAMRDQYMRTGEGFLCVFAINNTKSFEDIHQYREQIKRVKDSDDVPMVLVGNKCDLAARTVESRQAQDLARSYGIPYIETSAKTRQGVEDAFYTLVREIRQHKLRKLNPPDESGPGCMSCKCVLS

SMILES	NRAS/KRAS (ratio of KD value with respect to GDP-bound NRAS wild-type protein to KD value with respect to KRAS) [1]	HRAS/KRAS (ratio of KD value with respect to GDP-bound HRAS wild-type protein to KD value with respect to KRAS) [2]	further results
CCO[C@@H]1C[C@H]2C(=O)NC3(CCC3)C(=O)N(C)[C@@H](C3CCCC3)C(=O)N(C)[C@H](C(=O)N3CCOCC3)CC(=O)N(C)[C@@H](CC3CCC3)C(=O)N[C@@H]([C@@H](C)CC)C(=O)N(C)CC(=O)N(C)[C@H]3CCCCCN(C3=O)[C@@H](Cc3ccc(C(F)(F)F)cc3)C(=O)N(C)CC(=O)N[C@@H](CCc3cc(F)c(C(F)(F)F)c(F)c3)C(=O)N2C1 [PP0683]			NRAS/KRAS (ratio of KD value with respect to NRAS to KD value with respect to KRAS) [1, 3]: B (a compound having 3 or more and less than 10 is denoted as B); HRAS/KRAS (ratio of KD value with respect to HRAS to KD value with respect to KRAS) [2, 4]: B (a compound having 3 or more and less than 10 is denoted as B)
CCO[C@@H]1C[C@H]2C(=O)NC3(CCC3)C(=O)N(C)[C@@H](C3CCCC3)C(=O)N(C)[C@H](C(=O)N(C)CC)CC(=O)N(C)[C@@H](CC3CCCC3)C(=O)N[C@@H]([C@@H](C)CC)C(=O)N(C)CC(=O)N(C)[C@H]3C/C=C\CCN(C3=O)[C@@H](Cc3ccc(C(F)(F)F)cc3)C(=O)N(C)CC(=O)N[C@@H](CCc3ccc(C(F)(F)F)c(OC)c3)C(=O)N2C1 [PP1573]			NRAS/KRAS (ratio of KD value for NRAS to KD value for KRAS) ([1]; SPR, GDP-bound NRAS wild-type protein vs GDP-bound KRAS wild-type protein, KD ratio class): A (a compound having 10 or more and less than 20 is denoted as A); HRAS/KRAS (ratio of KD value for HRAS to KD value for KRAS) ([2]; SPR, GDP-bound HRAS wild-type protein vs GDP-bound KRAS wild-type protein, KD ratio class): A (a compound having 10 or more and less than 20 is denoted as A)
CCC[C@H]1C(=O)N[C@@H]([C@@H](C)CC)C(=O)N(C)CC(=O)N(C)[C@H]2C/C=C\CCN(C2=O)[C@@H](Cc2ccc(C)cc2)C(=O)N(C)CC(=O)N[C@@H](CCc2ccc3c(C)c(C)n(C)c3c2)C(=O)N2C[C@H](OCC)C[C@H]2C(=O)NC2(CC(C)(C)C2)C(=O)N(C)[C@@H](C(CC)CC)C(=O)N(C)[C@H](C(=O)N(C)C)CC(=O)N1C [PP2906]	A (a compound having 10 or more and less than 20 is denoted as A)	A (a compound having 10 or more and less than 20 is denoted as A)	
CCCOC[C@H]1C(=O)N[C@@H]([C@@H](C)CC)C(=O)N(C)CC(=O)N(C)[C@H]2C/C=C\CCN(C2=O)[C@@H](Cc2ccc(C(F)(F)F)cc2)C(=O)N(C)CC(=O)N[C@@H](CCc2ccc(Cl)c(Cl)c2)C(=O)N2C[C@H](OCC)C[C@H]2C(=O)NC2(CCC2)C(=O)N(C)[C@@H](C2CCCC2)C(=O)N(C)[C@H](C(=O)N(C)CCC)CC(=O)N1C [PP2830]	A (a compound having 10 or more and less than 20 is denoted as A)	A (a compound having 10 or more and less than 20 is denoted as A)	
CC[C@H](C)[C@@H]1NC(=O)[C@H](CC(C)C)N(C)C(=O)C[C@@H](C(=O)N2CCOCC2)N(C)C(=O)[C@H](C2CCCC2)N(C)C(=O)C2(CCCC2)NC(=O)[C@@H]2CCCN2C(=O)[C@H](CCc2ccc(C(F)(F)F)c(Cl)c2)NC(=O)CN(C)C(=O)[C@H](Cc2ccc(C(F)(F)F)cc2)N(CCC(C)(C)C)C(=O)CN(C)C(=O)CN(C)C1=O [PP0127] ([NMeL]I[Sar][Sar][X47][Sar][hPhe(3-Cl-4-CF3)]P[Ac5c][NMeGly(cPent)][NMeD]-Morpholide; lactam N-11)			NRAS/KRAS (ratio of KD value for NRAS to KD value for KRAS) [1, 3]: C (A compound having a KD ratio of 0.1 or more and less than 3 is denoted as C); HRAS/KRAS (ratio of KD value for HRAS to KD value for KRAS) [2, 4]: C (A compound having a KD ratio of 0.1 or more and less than 3 is denoted as C)
CCOC[C@H]1C(=O)N[C@@H]([C@@H](C)CC)C(=O)N(C)CC(=O)N(C)[C@H]2C/C=C\CCN(C2=O)[C@@H](Cc2ccc(OC)cc2)C(=O)N(C)CC(=O)N[C@@H](CCc2ccc(C(F)(F)F)c(OC)c2)C(=O)N2C[C@@H](C)C[C@H]2C(=O)NC2(CC(C)(C)C2)C(=O)N(C)[C@@H](C2CCCC2)C(=O)N(C)[C@H](C(=O)N(C)CC)CC(=O)N1C [PP2702]	A (a compound having 10 or more and less than 20 is denoted as A)	B (a compound having 3 or more and less than 10 is denoted as B)	
